From ChEMBL document CHEMBL1770128, “Synthesis and antifungal activities of novel 5,6-dihydro-indolo[1,2-a]quinoxaline derivatives” (2011)

What was measured:
Type in all cases: functional
Fusarium graminearum = experiment: Antimicrobial activity against Fusarium graminearum at 50 ug/ml after 5 days by poisoned food technique; conditions: 120 h
[1] = test system: Fusarium oxysporum f. sp. vasinfectum; experiment: Antimicrobial activity against Fusarium oxysporum f. sp. vasinfectum at 50 ug/ml […] by poisoned food technique; conditions: 120 h
Pyricularia oryzae = experiment: Antimicrobial activity against Pyricularia oryzae at 50 ug/ml after 5 days by poisoned food technique; conditions: 120 h
Alternaria brassicae = experiment: Antimicrobial activity against Alternaria brassicae at 50 ug/ml […] by poisoned food technique
Alternaria alternata = experiment: Antimicrobial activity against Alternaria alternata at 50 ug/ml […] by poisoned food technique; conditions: 120 h

SMILES | inhibition at 50 µg/mL (Fusarium graminearum) | inhibition at 50 µg/mL [1] | inhibition at 50 µg/mL (Pyricularia oryzae) | inhibition at 50 µg/mL (Alternaria brassicae) | inhibition at 50 µg/mL (Alternaria alternata)
Cc1ccc2cc3n(c2c1)-c1ccccc1NC3c1ccc([N+](=O)[O-])cc1 (stereo not given) | 12.2% | 11.7% | 1.6% | 13% | 7.8%
COc1ccc(C2Nc3ccccc3-n3c2cc2c(C)cccc23)cc1 (stereo not given) | 12.2% | 9.7% | 15.1% | 7.2% | 14.9%
Cc1c2n(c3ccccc13)-c1ccccc1NC2c1ccc(O)cc1 (stereo not given) | 48% | 44% | 46.5% | 53% | 55.6%
Cc1cccc2c1cc1n2-c2ccccc2NC1c1ccccc1 (stereo not given) | 32% | 8.8% | 22.1% | 30.4% | 29.2%
O=[N+]([O-])c1ccc(C2Nc3ccccc3-n3c2cc2ccccc23)cc1 (stereo not given) | 17.2% | 9.2% | 5.8% | 11.2% | 19.4%
COc1cc(C2Nc3ccccc3-n3c2cc2c(C)cccc23)ccc1O (stereo not given) | 12.3% | 20.2% | 16% | 21% | 17.9%
Cc1cccc2c1cc1n2-c2ccccc2NC1(C)c1ccccc1 (stereo not given) | 43% | 23.6% | 34.6% | 29.9% | 32.7%
Cc1cc(O)no1 [HYMEXAZOL] | 57% | 62.7% | 53.5% | 47.1% | 68.8%
Cc1c2n(c3ccccc13)-c1ccccc1NC2c1ccc([N+](=O)[O-])cc1 (stereo not given) | 26.6% | 11.4% | 11.8% | 13.3% | 18.2%
Cc1cccc2c1cc1n2-c2ccccc2NC1c1ccccc1O (stereo not given) | 8.8% | 11.7% | 7.8% | 55.8% | 12%
Oc1ccc(C2Nc3ccccc3-n3c2cc2ccccc23)cc1 (stereo not given) | 52.1% | 39.2% | 50.8% | 31.4% | 58.3%
Cc1cccc2c1cc1n2-c2ccccc2NC1c1ccc(O)cc1 (stereo not given) | 51.3% | 41.2% | 50.8% | 55.9% | 72.9%
Cc1ccc2cc3n(c2c1)-c1ccccc1NC3c1ccc(O)cc1 (stereo not given) | 41.2% | 37.3% | 43.7% | 49% | 56.3%
Cc1c2n(c3ccccc13)-c1ccccc1NC2c1ccco1 (stereo not given) | 31.5% | 17.8% | 33.4% | 30.1% | 37.3%
Cc1cccc2c1cc1n2-c2ccccc2NC1c1ccc([N+](=O)[O-])cc1 (stereo not given) | 24.6% | 5.3% | 10.1% | 10.4% | 17.7%
Cc1cccc2c1cc1n2-c2ccccc2NC1c1ccc(N(C)C)cc1 (stereo not given) | 17.6% | 6.9% | 7.7% | 10.4% | 19.8%
COc1cc(C2Nc3ccccc3-n3c2cc2ccccc23)ccc1O (stereo not given) | 15.7% | 11% | 4.4% | 15.7% | 9.2%
N#Cc1ccc2c(c1)cc1n2-c2ccccc2NC1c1ccc([N+](=O)[O-])cc1 (stereo not given) | 56.3% | 60.8% | 62.8% | 52.4% | 64.6%
